Source: paper PMC5328913 (Redox Biology, 2017)

Target: T1, L-galactono-1,4-lactone dehydrogenase (GalLDH) from pepper fruits (Capsicum annuum, UniProt Q6QD76)
T1 sequence (Q6QD76 38-586): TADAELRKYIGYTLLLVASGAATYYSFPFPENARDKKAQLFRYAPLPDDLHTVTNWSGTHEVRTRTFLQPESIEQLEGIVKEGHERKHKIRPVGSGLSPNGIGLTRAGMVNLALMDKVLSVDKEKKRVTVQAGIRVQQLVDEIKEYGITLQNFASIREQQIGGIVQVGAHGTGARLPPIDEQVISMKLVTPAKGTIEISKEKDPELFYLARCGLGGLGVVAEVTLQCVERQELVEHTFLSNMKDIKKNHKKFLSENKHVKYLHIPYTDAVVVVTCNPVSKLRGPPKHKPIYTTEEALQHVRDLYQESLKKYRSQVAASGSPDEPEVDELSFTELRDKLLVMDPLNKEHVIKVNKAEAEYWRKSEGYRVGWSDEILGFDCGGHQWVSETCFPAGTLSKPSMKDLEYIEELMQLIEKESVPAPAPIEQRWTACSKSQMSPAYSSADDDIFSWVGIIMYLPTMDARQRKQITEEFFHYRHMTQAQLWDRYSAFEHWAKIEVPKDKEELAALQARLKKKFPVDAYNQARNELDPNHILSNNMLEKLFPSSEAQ
Experiment: spectrophotometric cytochrome c reduction at […] nm
Assay type: biochemical
Settings: read-out: % inhibition at 0.5 mM and 2 mM

inhibition at 500 µM: 60%
SMILES: N[C@@H](CCC(=O)N[C@@H](CS)C(=O)NCC(=O)O)C(=O)O [GSH, reduced glutathione]
